Earlier results as cited in patent US20160022604A1, “DIRECTLY COMPRESSED OSPEMIFENE COMPOSITIONS” (CADILA HEALTHCARE LIMITED, priority 2014, published 2016).

Columns and labels:
[1] = classical hormonal tests
[2] = experimental models and human volunteers

**Q.** Which “estrogenic and antiestrogenic effects” value [1] does the source give for OCCOc1ccc(/C(=C(/CCCl)c2ccccc2)c2ccccc2)cc1 [Ospemifene, 2-[4-(4-chloro-1,2-diphenylbut-1-enyl)phenoxy]ethanol] here?
**A.** Its value is “relatively weak”.

**Q.** And the “total and LDL cholesterol levels” value [2]?
**A.** The value was “decreases”.
